Source: ChEMBL document CHEMBL3885881, “DrugMatrix”

Organism: Rattus norvegicus
Assay: DrugMatrix - Regimen: Daily Repeat
Assay type: toxicity, organism-based, Sprague-Dawley
Design: regimen Daily Repeat, gender Male, age 6-8 weeks
Conditions: in vivo, po, route oral GAVAGE, […]; for ABSOLUTE BASOPHIL / BASOPHIL / NUCLEATED RED BLOOD CELLS / ABSOLUTE EOSINOPHIL / ABSOLUTE LYMPHOCYTE / ABSOLUTE MONOCYTE / ABSOLUTE SEGMENTED NEUTROPHIL / EOSINOPHIL / ERYTHROCYTE COUNT / HEMATOCRIT / HEMOGLOBIN / LEUKOCYTE COUNT / LYMPHOCYTE / MEAN CORPUSCULAR HEMOGLOBIN / MEAN CORPUSCULAR HEMOGLOBIN CONCENTRATION / MEAN CORPUSCULAR VOLUME / MONOCYTE / NEUTROPHIL / PLATELET COUNT: tissue Blood; for TOTAL BILIRUBIN / ALANINE AMINOTRANSFERASE / ALBUMIN / ALKALINE PHOSPHATASE / ASPARTATE AMINOTRANSFERASE / BLOOD UREA NITROGEN / CARBON DIOXIDE / CHLORIDE / CHOLESTEROL / CREATINE PHOSPHOKINASE / CREATININE / GLUCOSE / LACTATE DEHYDROGENASE / LIPASE / PHOSPHORUS / POTASSIUM / SODIUM / TOTAL PROTEIN / URIC ACID: tissue Plasma
[1] = 0 mg/kg, 72 h, dose level Control, time 3 day
[2] = 0 mg/kg, 120 h, dose level Control, time 5 day
[3] = 10 mg/kg, 72 h, dose level Low, time 3 day
[4] = 10 mg/kg, 120 h, dose level Low, time 5 day

COc1ccc2cc([C@H](C)C(=O)O)ccc2c1 [NAPROXEN]
ABSOLUTE BASOPHIL [1]: 0 CELLS/uL
BASOPHIL [1]: 0%
NUCLEATED RED BLOOD CELLS [1]: 0 /100WBC
TOTAL BILIRUBIN [1]: 0.2 mg/dL
ABSOLUTE BASOPHIL [2]: 0 CELLS/uL
BASOPHIL [2]: 0%
ABSOLUTE BASOPHIL [3]: 0 CELLS/uL
ABSOLUTE EOSINOPHIL [3]: 0 CELLS/uL
ABSOLUTE LYMPHOCYTE [3]: 16953.33 CELLS/uL
ABSOLUTE MONOCYTE [3]: 484 CELLS/uL
ABSOLUTE SEGMENTED NEUTROPHIL [3]: 1296 CELLS/uL
BASOPHIL [3]: 0%
EOSINOPHIL [3]: 0%
ERYTHROCYTE COUNT [3]: 5.66 x10E6/uL
HEMATOCRIT [3]: 36.03%
HEMOGLOBIN [3]: 14.13 G/DL
LEUKOCYTE COUNT [3]: 18.73 x10E3/uL
LYMPHOCYTE [3]: 90.67%
MEAN CORPUSCULAR HEMOGLOBIN [3]: 25.03 pg
MEAN CORPUSCULAR HEMOGLOBIN CONCENTRATION [3]: 39.23 G/DL
MEAN CORPUSCULAR VOLUME [3]: 63.73 fL
MONOCYTE [3]: 2.67%
NEUTROPHIL [3]: 6.67%
NUCLEATED RED BLOOD CELLS [3]: 0.33 /100WBC
PLATELET COUNT [3]: 1140 x10E3/uL
ALANINE AMINOTRANSFERASE [3]: 66 u/L
ALBUMIN [3]: 3.9 G/DL
ALKALINE PHOSPHATASE [3]: 469.67 u/L
ASPARTATE AMINOTRANSFERASE [3]: 84 u/L
BLOOD UREA NITROGEN [3]: 9.67 mg/dL
CARBON DIOXIDE [3]: 20.33 mmol/L
CHLORIDE [3]: 103.67 MEQ/L
CHOLESTEROL [3]: 54.33 mg/dL
CREATINE PHOSPHOKINASE [3]: 295.33 u/L
CREATININE [3]: 0.19 mg/dL
GLUCOSE [3]: 187.67 mg/dL
LACTATE DEHYDROGENASE [3]: 313.33 u/L
LIPASE [3]: 9.33 u/L
PHOSPHORUS [3]: 12.03 mg/dL
POTASSIUM [3]: 6.09 MEQ/L
SODIUM [3]: 143.67 MEQ/L
TOTAL BILIRUBIN [3]: 0.1 mg/dL
TOTAL PROTEIN [3]: 5.87 G/DL
URIC ACID [3]: 2.03 mg/dL
ABSOLUTE BASOPHIL [4]: 0 CELLS/uL
ABSOLUTE EOSINOPHIL [4]: 321 CELLS/uL
ABSOLUTE LYMPHOCYTE [4]: 16605.33 CELLS/uL
ABSOLUTE MONOCYTE [4]: 680 CELLS/uL
ABSOLUTE SEGMENTED NEUTROPHIL [4]: 1493.67 CELLS/uL
BASOPHIL [4]: 0%
EOSINOPHIL [4]: 2%
ERYTHROCYTE COUNT [4]: 5.33 x10E6/uL
HEMATOCRIT [4]: 34.4%
HEMOGLOBIN [4]: 13.33 G/DL
LEUKOCYTE COUNT [4]: 19.1 x10E3/uL
LYMPHOCYTE [4]: 86.33%
MEAN CORPUSCULAR HEMOGLOBIN [4]: 25.23 pg
MEAN CORPUSCULAR HEMOGLOBIN CONCENTRATION [4]: 38.8 G/DL
MEAN CORPUSCULAR VOLUME [4]: 65 fL
MONOCYTE [4]: 3.67%
NEUTROPHIL [4]: 8%
NUCLEATED RED BLOOD CELLS [4]: 0 /100WBC
PLATELET COUNT [4]: 1322.33 x10E3/uL
ALANINE AMINOTRANSFERASE [4]: 109.67 u/L
ALBUMIN [4]: 3.7 G/DL
ALKALINE PHOSPHATASE [4]: 463.67 u/L
ASPARTATE AMINOTRANSFERASE [4]: 145.33 u/L
BLOOD UREA NITROGEN [4]: 8.33 mg/dL
CARBON DIOXIDE [4]: 19.33 mmol/L
CHLORIDE [4]: 104 MEQ/L
CHOLESTEROL [4]: 40.33 mg/dL
CREATINE PHOSPHOKINASE [4]: 1655.33 u/L
CREATININE [4]: 0.18 mg/dL
GLUCOSE [4]: 252 mg/dL
LACTATE DEHYDROGENASE [4]: 400 u/L
LIPASE [4]: 9 u/L
PHOSPHORUS [4]: 14.07 mg/dL
POTASSIUM [4]: 6.26 MEQ/L
SODIUM [4]: 143.27 MEQ/L
TOTAL BILIRUBIN [4]: 0.17 mg/dL
TOTAL PROTEIN [4]: 5.4 G/DL
URIC ACID [4]: 3.1 mg/dL
